From PubChem BioAssay AID328 (DTP/NCI, 2004)
“And” between values parts separate entries of the source, which are not always exact repeats. Equal values may be shown once. Toxic doses and inconclusive results are not listed.

System: BDF1 mice, P388 leukemia ip, median survival T/C
Assay: NCI In Vivo Anticancer Drug Screen. Data for tumor model P388 Leukemia (intraperitoneal) in B6D2F1 (BDF1) mice
Conditions: endpoint: median survival time, higher = longer survival
Summary of the method: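 Reported as T/C, where T is the survival measurement in dosed animals and C the same measurement in vehicle controls.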

[1] = dose: 25.0 mg/kg/injection, schedule: Q01DX009 (ip), vehicle: saline with Tween-80
[2] = dose: 50.0 mg/kg/injection, schedule: Q01DX009 (ip), vehicle: saline with Tween-80
[3] = dose: 100.0 mg/kg/injection, schedule: Q04DX003 (ip), vehicle: saline
[4] = dose: 200.0 mg/kg/injection, schedule: Q04DX003 (ip), vehicle: saline
[5] = dose: 25.0 mg/kg/injection, schedule: Q01DX009 (ip), vehicle: saline
[6] = dose: 50.0 mg/kg/injection, schedule: Q04DX003 (ip), vehicle: saline with Tween-80
[7] = dose: 100.0 mg/kg/injection, schedule: Q04DX003 (ip), vehicle: saline with Tween-80
[8] = dose: 50.0 mg/kg/injection, schedule: Q04DX002 (ip), vehicle: saline with Tween-80
[9] = dose: 100.0 mg/kg/injection, schedule: Q04DX002 (ip), vehicle: saline with Tween-80
[10] = dose: 50.0 mg/kg/injection, schedule: Q01DX009 (ip), vehicle: saline

## Cn1cnc([N+](=O)[O-])c1Cl
[1]
  T/C: 101 % of control
dose: 50.0 mg/kg/injection, schedule: Q01DX005 (ip), vehicle: saline
  T/C: 95 % of control
[2]
  T/C: 92 % of control
dose: 100.0 mg/kg/injection, schedule: Q01DX005 (ip), vehicle: saline
  T/C: 104 % of control
dose: 100.0 mg/kg/injection, schedule: Q01DX009 (ip), vehicle: saline with Tween-80
  T/C: 106 % of control
[3]
  T/C: 100 % of control
dose: 200.0 mg/kg/injection, schedule: Q01DX009 (ip), vehicle: saline with Tween-80
  T/C: 101 % of control
[4]
  T/C: 105 % of control

## CCCCNC(C)(C)CS
dose: 3.12 mg/kg/injection, schedule: Q04DX003 (ip), vehicle: saline
  T/C: 106 % of control
dose: 6.25 mg/kg/injection, schedule: Q04DX003 (ip), vehicle: saline
  T/C: 115 % of control
dose: 12.5 mg/kg/injection, schedule: Q01DX009 (ip), vehicle: saline
  T/C: 116 % of control
dose: 12.5 mg/kg/injection, schedule: Q04DX003 (ip), vehicle: saline
  T/C: 108 % of control
[5]
  T/C: 109 % of control
dose: 25.0 mg/kg/injection, schedule: Q04DX003 (ip), vehicle: saline
  T/C: 97 % of control
dose: 50.0 mg/kg/injection, schedule: Q04DX003 (ip), vehicle: saline
  T/C: 101 % of control
[3]
  T/C: 92 % of control

## O=C(O)O.[Mn]
dose: 100.0 mg/kg/injection, schedule: Q01DX010 (ip), vehicle: water
  T/C: 86 % of control and 93 % of control
dose: 200.0 mg/kg/injection, schedule: Q01DX010 (ip), vehicle: water
  T/C: 91 % of control
dose: 400.0 mg/kg/injection, schedule: Q01DX010 (ip), vehicle: water
  T/C: 77 % of control
dose: 800.0 mg/kg/injection, schedule: Q01DX010 (ip), vehicle: water
  T/C: 83 % of control and 86 % of control

## Cc1cc(C)c(S(=O)(=O)O)cc1C
[6]
  T/C: 104 % of control
[7]
  T/C: 100 % of control

## O=C1C=CC(=O)N1c1ccc(-c2nc3ccccc3o2)cc1
dose: 50.0 mg/kg/injection, schedule: Q01DX005 (ip), vehicle: saline with Tween-80
  T/C: 121 % of control
dose: 100.0 mg/kg/injection, schedule: Q01DX005 (ip), vehicle: saline with Tween-80
  T/C: 100 % of control

## CSc1ncc(C)c[n+]1-c1ccccc1
[8]
  T/C: 106 % of control
[9]
  T/C: 107 % of control

## CCSc1ccc2c(c1)N(CCCN1CCN(C)CC1)c1ccccc1S2
dose: 15.0 mg/kg/injection, schedule: Q04DX003 (ip), vehicle: saline
  T/C: 110 % of control
[1]
  T/C: 112 % of control
[5]
  T/C: 92 % of control
dose: 30.0 mg/kg/injection, schedule: Q04DX003 (ip), vehicle: saline
  T/C: 120 % of control
[2]
  T/C: 91 % of control
[10]
  T/C: 103 % of control
[3]
  T/C: 90 % of control
dose: 120.0 mg/kg/injection, schedule: Q04DX003 (ip), vehicle: saline
  T/C: 105 % of control
[4]
  T/C: 150 % of control

## Cc1ccc(N)c(CSc2ccccc2)c1
[8]
  T/C: 95 % of control
[9]
  T/C: 97 % of control
dose: 200.0 mg/kg/injection, schedule: Q04DX002 (ip), vehicle: saline with Tween-80
  T/C: 98 % of control

## Cc1cc(NC(=O)c2ccccc2)c(Cl)cc1N
[6]
  T/C: 95 % of control
[7]
  T/C: 95 % of control
dose: 200.0 mg/kg/injection, schedule: Q04DX003 (ip), vehicle: saline with Tween-80
  T/C: 95 % of control

## COc1cc2ccc3c(c2cc1OC)C=[N+](C)CC3
[2]
  T/C: 108 % of control
[3]
  T/C: 118 % of control
[4]
  T/C: 118 % of control
dose: 400.0 mg/kg/injection, schedule: Q04DX003 (ip), vehicle: saline
  T/C: 90 % of control

## O=C(O)C1C2C=CC(C3C=CC32)C1C(=O)O (stereo not drawn)
[5]
  T/C: 97 % of control
[10]
  T/C: 93 % of control
dose: 100.0 mg/kg/injection, schedule: Q01DX009 (ip), vehicle: saline
  T/C: 97 % of control
dose: 200.0 mg/kg/injection, schedule: Q01DX009 (ip), vehicle: saline
  T/C: 96 % of control
dose: 400.0 mg/kg/injection, schedule: Q01DX009 (ip), vehicle: saline
  T/C: 102 % of control

## ClC(c1ccccc1)(c1ccccc1)c1ccccc1
dose: 100.0 mg/kg/injection, schedule: Q04DX003 (ip), vehicle: other
  T/C: 100 % of control
dose: 200.0 mg/kg/injection, schedule: Q04DX003 (ip), vehicle: other
  T/C: 108 % of control
dose: 400.0 mg/kg/injection, schedule: Q04DX003 (ip), vehicle: other
  T/C: 104 % of control
